Test results reported in US11332438B2, “Creatine prodrugs, compositions and methods of use thereof” (Ultragenyx Pharmaceutical Inc., priority 2017, dated 2022).

What was measured:
[1] = system: ARPE-19 cells; experiment: Creatine prodrug uptake and d3-creatine release in ARPE-19 cells (Table 4A); type: cell-based, human; conditions: 50 μM, 6 h, cytosol fraction, corrected for total protein
Experimental: At the end of the incubation, supernatant will be collected from each well to assess prodrug recovery. Cells are then washed 3× with PBS. Plates, prodrugs in supernatant, prodrugs in serum-free medium are stored at −80° C. until harvest (within 5 days). On the day of extraction, 130 uL of lysis buffer (10 mM Tris pH 7.4) with EDTA-free protease inhibitors is added to each well and cells are removed using a cell scraper. Lysates are further homogenized using a handheld pestle and then centrifuged at 16,000 g, […], for 10 minutes to collect cytosol fraction. Pellets will be stored at −80° C. until further analysis. A 4× volume of stop solution (80% ACN/20% water) will be added to the cytosol fraction, supernatant and medium. Samples will be centrifuged at 15,890 g (13,000 rpm) at 4° C. for 10 mins. Supernatant will be collected and stored at −80° C. within 5 days prior to LC-MS/MS analysis. Dosing solutions for each prodrug (10 μM) will be assayed to verify concentration. Cells alone with vehicle will serve as controls to assess background signal for LC-MS/MS. Two independent runs of experiment will be conducted.
Nine fatty acid amide creatine prodrugs were tested in human ARPE-19 cells to assess prodrug uptake and d3-Cr release inside the cells. 50 μM of prodrug was incubated in culture medium with the cells and the cells were harvested at 6 h. Quantitation of prodrugs, d3-Cr (d3-creatine) and d3-Cm (d3-creatinine) in the cytosol fraction was corrected for total protein concentration.

[2] = target: T1, recombinant human FAAH enzyme (rFAAH) (Homo sapiens, UniProt O00519); experiment: Direct prodrug cleavage with recombinant human FAAH enzyme (rFAAH): d3-Cr release and d3-Crn cyclization; type: biochemical; conditions: 200 μM prodrug, 3 h; result in words
T1 sequence (O00519 1-579): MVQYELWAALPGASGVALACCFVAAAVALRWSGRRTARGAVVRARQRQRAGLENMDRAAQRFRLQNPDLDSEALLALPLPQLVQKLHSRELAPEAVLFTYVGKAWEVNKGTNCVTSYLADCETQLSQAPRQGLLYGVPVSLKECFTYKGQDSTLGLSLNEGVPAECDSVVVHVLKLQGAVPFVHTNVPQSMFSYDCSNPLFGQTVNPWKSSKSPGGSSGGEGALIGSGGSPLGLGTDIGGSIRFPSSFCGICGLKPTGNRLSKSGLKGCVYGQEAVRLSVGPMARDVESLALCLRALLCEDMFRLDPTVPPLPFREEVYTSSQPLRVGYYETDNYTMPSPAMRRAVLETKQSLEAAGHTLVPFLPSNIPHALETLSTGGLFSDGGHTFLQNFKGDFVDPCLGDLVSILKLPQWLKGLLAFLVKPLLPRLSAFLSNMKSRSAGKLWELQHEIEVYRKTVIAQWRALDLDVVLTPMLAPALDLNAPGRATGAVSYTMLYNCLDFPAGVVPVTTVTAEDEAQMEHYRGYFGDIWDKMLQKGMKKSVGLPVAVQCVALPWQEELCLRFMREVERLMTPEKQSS
Experimental: (§1) For assessment of the ability of prodrugs to release creatine, and to release creatine preferentially to unwanted cyclization to creatinine, d3-labeled (deuterium labeled methyl group) prodrugs are incubated with brain homogenates (e.g., mouse, human) specially prepared to preserve FAAH activity or with rFAAH for direct cleavage study. The use of d3-labelled prodrugs is essential in order to distinguish prodrug-derived creatine (d3-creatine) from high concentrations of endogenous (non-labeled) creatine. […] Prodrugs are tested at final concentrations of 20 μM and 200 μM. Approximately 3-4 mg of homogenate is used for each reaction. Co-factor (NADPH) is included at a final concentration of 1 mM. FAAH activity is confirmed by conversion of 7-amino-4-methyl Coumarin-Arachidonamide to 7-amino-4-methyl Coumarin by fluorescent assay. Negative controls include incubations without brain homogenate/rFAAH (but with NADPH) or 65° C. heat inactivated brain homogenate/rFAAH to assess non-enzymatic prodrug cleavage under the conditions of the assay and FAAH inhibitor […] at the concentration of 1 μM. Prodrug incubations are prepared by addition of 8 μL of prodrug stock solution (500 or 5000 μM in DMSO or DMSO/methanol) to assay buffered, followed by addition of brain homogenate/rFAAH. […] The samples are centrifuged at 15890×g for 10 minutes at 4° C., followed by transfer of the supernatants for storage at −20° C. pending LC-MS/MS analysis. Sample supernatants are analyzed by LC-MS/MS for determination of d3-prodrug, d3-creatine and d3-creatinine levels.
(§2) Deuterated creatine prodrugs were tested in 3 different in vitro assays to assess d3-creatine (d3-Cr) release and cyclization to form d3-creatinine (d3-Crn). These assays were 1) direct cleavage with recombinant human FAAH enzyme (rFAAH), 2) cleavage in mouse brain homogenates (MBH), and 3) human brain homogenates (HBH).
(§3) Creatine prodrug cleavage efficiency was determined by percentage of net d3-Cr release in μM (positive reaction subtracted from negative control of no brain homogenate/rFAAH or inactivated brain homogenate/rFAAH) over nominal input concentration of 200 μM prodrug at 3 h. Propensity for creatinine cyclization was determined by percentage of d3-Crn generated in μM in positive reaction over nominal input concentration of 200 μM prodrug at 3 h.

[3] = Prodrug cleavage in human brain homogenates (HBH): d3-Cr release and d3-Crn cyclization; type: in vitro ADME; conditions: in vitro cleavage assays (Table 3A)
Experimental: as §1, §2, §3

[4] = In vivo IV dosing in CrT KO mice: prodrug, d3-Cr and d3-Crn in brain (Table 5); conditions: CrT KO mouse brain, BQL prodrug = 41.2 ng/mL
Procedure, shortened: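 CrT KO mice received prodrugs by IV injection at 10, 15 or 25 mg/kg. Brains were collected, flash frozen and homogenized in 100 mM KPI buffer with anti-proteases. Prodrug, d3-Cr and d3-Crn were quantified by LC-MS/MS and expressed as brain concentration (macrocycles) or AUC over time (linear prodrugs).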

Row | prodrug, Cellular Uptake [1] | Prodrug Cleavage rFAAH d3-Crn release (yes/no) [2] | Prodrug Cleavage rFAAH net d3-Cr release (yes/no) [2] | d3-Crn (creatinine) cyclization in vitro (in words) [3] | d3-Crn (creatinine) cyclization in vitro (in words) ([3]; listed as Compound 8) | AUClast prodrug in the brain ([4]; IV 15 mg/kg) | AUClast prodrug in the brain ([4]; IV 10 mg/kg) | SMILES
1 | BQL | yes | no |  |  |  |  | Cl.[H]/N=C(/NC(=O)CCCCCCC/C=C\CCCCCCCC)N(CC(=O)OCCCCCCC)C([2H])([2H])[2H] [Compound 2, (Z)-heptyl 2-(1-trideuteriomethyl-3-oleoylguanidino)acetate Hydrochloride]
2 |  |  |  | predominantly creatinine cyclization | predominantly cyclized into creatinine | BQL |  | Cl.[2H]C([2H])([2H])N(CC(=O)OCC)C(=N)NC(=O)CCCCCCCCCC [Compound 8]
3 | BQL | yes | no |  |  |  | BQL | Cl.[2H]C([2H])([2H])N(CC(=O)OCCCCCCC)C(=N)NC(=O)CCCCCCCCCCCC [Compound 11]
